Experimental data published in US9034918B2, “Composition including at least one trans-cinnamaldehyde and the use thereof in the treatment of bacterial infections, specifically in the treatment of nosocomial infections” (SEPTEOS, priority 2009, dated 2015).

How the values were obtained:
Assay in all cases: Antibiogram by diffusion technique (CA-SFM 2008)
Type in all cases: cell-based
E. coli ATCC 25922 = system: E. coli ATCC 25922; set-up: Diameter (D): unit not given here
From the text: Three clinical categories were selected for interpretation of the in vitro sensitivity tests: sensitive (S), resistant (R) and intermediate (I). • The strains categorized S are those for which the probability of therapeutic success is high in the case of treatment by systemic route with the dosing schedule recommended in the summary of product characteristics (SPC) prepared by the French Health Products Safety Agency ([…]). • The strains categorized R are those for which there is a high probability of therapeutic failure regardless of treatment type and antibiotic dose. • The strains categorized I are those for which therapeutic success cannot be predicted. These strains form a heterogeneous group for which the results obtained in vitro are not predictive of therapeutic success. […] The intermediate category is also a buffer zone which takes into account technical and biological uncertainties. The sensitivity of strains to antibiotics was determined by a diffusion technique according to the 2008 recommendations by the Antibiogram Committee of the French Microbiology Society (CA-SFM). In terms of critical concentrations and diameters, strains are categorized as follows: • sensitive (S): strains for which the MIC of the antibiotic tested is less than or equal to the lower critical concentration c, which is equivalent to a diameter greater than or equal to the critical diameter D; • resistant (R): strains for which the MIC of the antibiotic tested are greater than the upper critical concentration C, corresponding to a diameter less than the critical diameter d; • intermediate sensitivity (I): strains for which the MIC of the antibiotic tested and the corresponding diameter are between the two critical concentrations and the two critical diameters. The tests were carried out on Mueller-Hinton agar. An inoculum adjusted to 0.5 on the McFarland scale is then diluted to 1/100. Petri dishes are inoculated by swabbing. The dishes are read after 24 hours of incubation at 37° C. The raw results are then interpreted according to the interpretative reading rules of the CA-SFM. Two examples: all strains of methicillin-resistant Staphylococcus are resistant to all beta-lactams, and the same is true for gentamicin-resistant strains; golden staph is necessarily resistant to kanamycin (and amikacin) and tobramycin. The quality of the diffusion method is controlled using E. coli strain ATCC 25922.

E. coli strain 8154 = system: E. coli strain 8154; set-up: D: unit not given here
From the text: (§1) Three clinical categories were selected for interpretation of the in vitro sensitivity tests: sensitive (S), resistant (R) and intermediate (I). • The strains categorized S are those for which the probability of therapeutic success is high in the case of treatment by systemic route with the dosing schedule recommended in the summary of product characteristics (SPC) prepared by the French Health Products Safety Agency (AFSSAPS). • The strains categorized R are those for which there is a high probability of therapeutic failure regardless of treatment type and antibiotic dose. • The strains categorized I are those for which therapeutic success cannot be predicted. These strains form a heterogeneous group for which the results obtained in vitro are not predictive of therapeutic success. […] The intermediate category is also a buffer zone which takes into account technical and biological uncertainties.
(§2) The sensitivity of strains to antibiotics was determined by a diffusion technique according to the 2008 recommendations by the Antibiogram Committee of the French Microbiology Society (CA-SFM).
(§3) In terms of critical concentrations and diameters, strains are categorized as follows: • sensitive (S): strains for which the MIC of the antibiotic tested is less than or equal to the lower critical concentration c, which is equivalent to a diameter greater than or equal to the critical diameter D; • resistant (R): strains for which the MIC of the antibiotic tested are greater than the upper critical concentration C, corresponding to a diameter less than the critical diameter d; • intermediate sensitivity (I): strains for which the MIC of the antibiotic tested and the corresponding diameter are between the two critical concentrations and the two critical diameters.
(§4) The tests were carried out on Mueller-Hinton agar. An inoculum adjusted to 0.5 on the McFarland scale is then diluted to 1/100. Petri dishes are inoculated by swabbing. The dishes are read after 24 hours of incubation at 37° C.
(§5) The raw results are then interpreted according to the interpretative reading rules of the CA-SFM.

E. coli strain 8155 = system: E. coli strain 8155; set-up: D: unit not given here
From the text: as §1, §2, §3, §4, §5

E. coli strain 8156 = system: E. coli strain 8156; set-up: D: unit not given here
From the text: as §1, §2, §3, §4, §5

E. coli strain 8157 = system: E. coli strain 8157; set-up: D: unit not given here
From the text: as §1, §2, §3, §4, §5

[1] = system: Pseudomonas aeruginosa strain 8128; set-up: D: unit not given here
From the text: as §1, §2, §3, §4, §5

[2] = system: Pseudomonas aeruginosa strain 8129; set-up: D: unit not given here
From the text: as §1, §2, §3, §4, §5

[3] = system: Pseudomonas aeruginosa strain 8132; set-up: D: unit not given here
From the text: as §1, §2, §3, §4, §5

[4] = system: Pseudomonas aeruginosa strain 8134; set-up: D: unit not given here
From the text: as §1, §2, §3, §4, §5

[5] = system: golden staph (S. aureus) strain 8147; set-up: D: unit not given here
From the text: as §1, §2, §3, §4, §5

[6] = system: golden staph (S. aureus) strain 8239; set-up: D: unit not given here
From the text: as §1, §2, §3, §4, §5

[7] = system: golden staph (S. aureus) strain 8240; set-up: D: unit not given here
From the text: as §1, §2, §3, §4, §5

Enterococcus strain 8152 = system: Enterococcus strain 8152; set-up: Diameter: unit not given here
From the text: as §1, §2, §3, §4, §5

Enterococcus strain 8153 = system: Enterococcus strain 8153; set-up: Diameter: unit not given here
From the text: as §1, §2, §3, §4, §5

E. coli strain 9003 = system: E. coli strain 9003
From the text: as §1, §2, §3, §4, §5

[8] = system: Enterobacter aerogenes (9004); conditions: strain 9004
From the text: as §1, §2, §3, §4, §5

[9] = system: strain 9007, Pseudomonas aeruginosa, with VIM-2 carbapenemase
From the text: as §1, §2, §3, §4, §5

[10] = system: strain 9010, Acinetobacter baumannii, with VEB-1 ESBL
From the text: as §1, §2, §3, §4, §5

[11] = system: Enterococcus faecium (9001); conditions: strain 9001
From the text: as §1, §2, §3, §4, §5

| Compound | Category (Cat.) (E. coli ATCC 25922) | Diameter (D) (E. coli ATCC 25922) | Cat. (E. coli strain 8154) | D (E. coli strain 8154) | Cat. (E. coli strain 8155) | D (E. coli strain 8155) | Cat. (E. coli strain 8156) | D (E. coli strain 8156) | Cat. (E. coli strain 8157) | Cat. [5] | D [5] | Cat. [6] | D [6] | Cat. [7] | D [7] | Category (Enterococcus strain 8152) | Diameter (Enterococcus strain 8152) | Category (Enterococcus strain 8153) | Diameter (Enterococcus strain 8153) | Category [11] | further results |
| --- | --- | --- | --- | --- | --- | --- | --- | --- | --- | --- | --- | --- | --- | --- | --- | --- | --- | --- | --- | --- | --- |
| CC1(C)S[C@@H]2[C@H](NC(=O)[C@H](N)c3ccc(O)cc3)C(=O)N2[C@H]1C(=O)O [Amoxicillin] | S | 23 | R | 0 | S | 24 | S | 25 | R | R | 26 | R | 12 | R | 17 | S | 32 | S | 33 | – | D (E. coli strain 8157): 0; Cat. [1]: R; D [1]: 0; Cat. [2]: R; D [2]: 0; Cat. [3]: R; D [3]: 0; Cat. [4]: R; D [4]: 0; Category (E. coli strain 9003): R; Category [8]: R; Category [9]: R; Category [10]: R |
| CN(C)[C@@H]1C(O)=C(C(N)=O)C(=O)[C@@]2(O)C(O)=C3C(=O)c4c(O)cccc4[C@@](C)(O)[C@H]3C[C@@H]12 [Tetra] | – | – | – | – | – | – | – | – | – | – | – | – | – | – | – | – | – | – | – | S | – |
| O=C(N[C@H](CO)[C@H](O)c1ccc([N+](=O)[O-])cc1)C(Cl)Cl [Chloram] | – | – | – | – | – | – | – | – | – | – | – | – | – | – | – | – | – | – | – | S | – |
| CCC[C@@H]1C[C@@H](C(=O)N[C@@H]([C@H]2O[C@H](SC)[C@H](O)[C@@H](O)[C@H]2O)[C@H](C)Cl)N(C)C1 [Clindamycin] | – | – | – | – | – | – | – | – | – | S | 29 | S | 31 | S | 30 | R | 0 | R | 0 | R | – |
| NC[C@H]1O[C@H](O[C@H]2[C@H](O)[C@@H](O[C@H]3O[C@H](CO)[C@@H](O)[C@H](N)[C@H]3O)[C@H](N)C[C@@H]2N)[C@H](N)C[C@@H]1O [Tobramycin] | S | 24 | S | 24 | S | 24 | S | 22 | S | S | 30 | S | 31 | R | 0 | R | 11 | R | 14 | – | D (E. coli strain 8157): 24; Cat. [1]: S; D [1]: 30; Cat. [2]: S; D [2]: 27; Cat. [3]: R; D [3]: 0; Cat. [4]: R; D [4]: 11; Category (E. coli strain 9003): S; Category [8]: R; Category [9]: S; Category [10]: R |
| CC1(C)S[C@@H]2[C@H](NC(=O)[C@H](N)c3ccccc3)C(=O)N2[C@H]1C(=O)O [Ampi] | – | – | – | – | – | – | – | – | – | – | – | – | – | – | – | – | – | – | – | R | – |
| CC(=O)NC[C@H]1CN(c2ccc(N3CCOCC3)c(F)c2)C(=O)O1 [Linezolid] | – | – | – | – | – | – | – | – | – | – | – | – | – | – | – | – | – | – | – | S | – |
| CN[C@H](CC(C)C)C(=O)N[C@H]1C(=O)N[C@@H](CC(N)=O)C(=O)N[C@H]2C(=O)N[C@H]3C(=O)N[C@H](C(=O)N[C@H](C(=O)O)c4cc(O)cc(O)c4-c4cc3ccc4O)[C@H](O)c3ccc(c(Cl)c3)Oc3cc2cc(c3O[C@@H]2O[C@H](CO)[C@@H](O)[C@H](O)[C@H]2O[C@H]2C[C@](C)(N)[C@H](O)[C@H](C)O2)Oc2ccc(cc2Cl)[C@H]1O [Vanco] | – | – | – | – | – | – | – | – | – | – | – | – | – | – | – | – | – | – | – | R | – |
| NC[C@H]1O[C@H](O[C@H]2[C@H](O)[C@@H](O[C@H]3O[C@H](CO)[C@@H](O)[C@H](N)[C@H]3O)[C@H](N)C[C@@H]2N)[C@H](O)[C@@H](O)[C@@H]1O [Kanamycin] | S | 22 | S | 24 | S | 23 | S | 27 | S | S | 22 | S | 26 | R | 12 | R | 10 | R | 14 | R | D (E. coli strain 8157): 24; Cat. [1]: R; D [1]: 9; Cat. [2]: R; D [2]: 10; Cat. [3]: R; D [3]: 0; Cat. [4]: R; D [4]: 14; Category [9]: R; Category [10]: R |
| CC[C@H]1OC(=O)[C@H](C)[C@@H](O[C@H]2C[C@@](C)(OC)[C@@H](O)[C@H](C)O2)[C@H](C)[C@@H](O[C@@H]2O[C@H](C)C[C@H](N(C)C)[C@H]2O)[C@](C)(O)C[C@@H](C)C(=O)[C@H](C)[C@@H](O)[C@]1(C)O [Erythro] | – | – | – | – | – | – | – | – | – | – | – | – | – | – | – | – | – | – | – | R | – |
| COc1c(N2C[C@@H]3CCCN[C@@H]3C2)c(F)cc2c(=O)c(C(=O)O)cn(C3CC3)c12 [Moxiflo] | – | – | – | – | – | – | – | – | – | – | – | – | – | – | – | – | – | – | – | R | – |
| CN[C@@H]1[C@H](O[C@H]2[C@H](O[C@H]3[C@H](O)[C@@H](O)[C@H](N=C(N)N)[C@@H](O)[C@@H]3N=C(N)N)O[C@@H](C)[C@]2(O)C=O)O[C@@H](CO)[C@H](O)[C@H]1O [Strepto HC] | – | – | – | – | – | – | – | – | – | – | – | – | – | – | – | – | – | – | – | R | – |
| Amoxicillin + clavulanic acid | S | 22 | S | 14 | S | 24 | S | 22 | S | R | 25 | R | 27 | R | 25 | S | 30 | S | 32 | – | D (E. coli strain 8157): 30; Cat. [1]: R; D [1]: 0; Cat. [2]: R; D [2]: 0; Cat. [3]: R; D [3]: 0; Cat. [4]: R; D [4]: 0; Category (E. coli strain 9003): S; Category [8]: R; Category [9]: R; Category [10]: R |
